The values that follow are results of earlier work, collected in patent publication US20190183792A1, “COMPOSITION AND METHOD FOR TREATING HERPESVIRUS IN MAMMALS” (VELOCE BIOPHARMA, LLC, priority 2016, published 2019).

Data set [1] relates to Feline Herpesvirus. The conditions noted are these: research by Nasisse.
Data set [2] relates to Human herpes simplex virus.
The test system of data set [3] is ocular herpesvirus infection. The conditions noted are these: canine models in vivo.
The conditions of data set [4]: compared among the antivirals.

Structures are written as SMILES.

As to `Nc1nc2c(ncn2COCCO)c(=O)[nH]1` [Acyclovir], the “effectiveness against Feline Herpesvirus (rank order)” value (shortened to “effectiveness … (rank order)”) in data set [1] was “not effective”. Moreover, the “effectiveness against Human herpes simplex virus” value in data set [2] is on record as “most effective”.

Turning to `Nc1ncnc2c1ncn2[C@@H]1O[C@H](CO)[C@@H](O)[C@@H]1O` [Adenine Arabinoside], the “effectiveness … (rank order)” value in data set [1] is reported as “then Adenine Arabinoside”.

Take `Nc1ccn(C[C@@H](CO)OCP(=O)(O)O)c(=O)n1` [Cidofovir]: in data set [3], the local ocular toxicity entry is on record as “local ocular toxicity is significant” and the viral shedding result was “decrease viral shedding”.

Turning to `O=c1[nH]c(=O)n([C@H]2C[C@H](O)[C@@H](CO)O2)cc1I` [Idoxuridine], in data set [4], the solubility result was “poorly soluble”.

With `O=c1[nH]c(=O)n([C@H]2C[C@H](O)[C@@H](CO)O2)cc1C(F)(F)F` [Triflurothymidine], the “effectiveness … (rank order)” value in data set [1] is given as “most effective”. For the same compound, in data set [4], the effectiveness result was “most effective”, the solubility entry is on record as “most soluble” and the toxicity entry is on record as “least toxic”.
